Reference: patent US11219212B2, “Herbicidal composition comprising cinmethylin and imazamox” (BASF Agro B.V., priority 2015, dated 2022)

Tests used:
Format in all cases: in vivo
Abutilon theophrasti = assay: Greenhouse preemergence herbicidal activity; conditions: ABUTH, 20 DAT
Description: (§1) The test plants have been seeded, separately for each species, in plastic containers in sandy loamy soil containing 5% of organic matter.
(§2) The containers were irrigated gently to promote germination and growth and subsequently covered with transparent plastic hoods until the plants had rooted.
(§3) The plants have been cultivated due to their individual requirements at 10-25° C. and 20-35° C. The plants were irrigated due to their necessity.
(§4) The racemic mixture (±)-2-exo-(2-M ethylbenzyloxy)-1-methyl-4-isopropyl-7-oxabicyclo[2.2.1]heptane was used as herbicide A and formulated as emulsifiable concentrates with an active ingredient concentration of 50 g/l, 100 g/I or 750 g/I respectively.
(§5) Imazamox (herbicide B.1) was used as a water dispersible granule (70% WG).
(§6) In the following experiments, the herbicidal activity for the individual herbicidal compositions (solo and mixture applications) was assessed 20 days after treatment (DAT).
(§7) The evaluation for the damage on undesired weeds caused by the chemical compositions was carried out using a scale from 0 to 100%, compared to the untreated control plants. Here, 0 means no damage and 100 means complete destruction of the plants.
(§8) E=X+Y−(X·Y/100) where X=effect in percent using herbicide A at an application rate a; • Y=effect in percent using herbicide B at application rate b; • E=expected effect (in %) of herbicide A+herbicide B at application rates a+b.

Lolium multiflorum = assay: Greenhouse preemergence herbicidal activity; conditions: LOLMU
Description: as §1, §2, §3, §4, §5, §6, §7, §8

Chenopodium album [1] = assay: Greenhouse preemergence herbicidal activity; conditions: imazamox solo 4.4 g ai/ha, CHEAL, 20 DAT
Description: as §1, §2, §3, §4, §5, §6, §7, §8

Setaria viridis [2] = assay: Greenhouse preemergence herbicidal activity; conditions: SETVI
Description: as §1, §2, §3, §4, §5, §6, §7, §8

Galium aparine = assay: Greenhouse preemergence herbicidal activity; conditions: GALAP, 20 DAT
Description: as §1, §2, §3, §4, §5, §6, §7, §8

Polygonum convolvulus [3] = assay: Greenhouse preemergence herbicidal activity; conditions: imazamox solo 8.8 g ai/ha, POLCO, 20 DAT
Description: as §1, §2, §3, §4, §5, §6, §7, §8

Geranium dissectum = assay: Greenhouse preemergence herbicidal activity; conditions: imazamox solo 8.8 g ai/ha, GERDI, 20 DAT
Description: as §1, §2, §3, §4, §5, §6, §7, §8

Amaranthus retroflexus = assay: Greenhouse preemergence herbicidal activity; conditions: AMARE
Description: as §1, §2, §3, §4, §5, §6, §7, §8

Sorghum halepense [4] = assay: Greenhouse preemergence herbicidal activity; conditions: imazamox solo 4.4 g ai/ha, SORHA, 20 DAT
Description: as §1, §2, §3, §4, §5, §6, §7, §8

Avena fatua [5] = assay: Greenhouse preemergence herbicidal activity; conditions: AVEFA
Description: as §1, §2, §3, §4, §5, §6, §7, §8

Echinochloa crus-galli = assay: Greenhouse preemergence herbicidal activity; conditions: ECHCG, 20 DAT
Description: as §1, §2, §3, §4, §5, §6, §7, §8

Anthemis arvensis [6] = assay: Greenhouse preemergence herbicidal activity; conditions: ANTAR
Description: as §1, §2, §3, §4, §5, §6, §7, §8

Stellaria media = assay: Greenhouse preemergence herbicidal activity; conditions: STEME
Description: as §1, §2, §3, §4, §5, §6, §7, §8

Chenopodium album [7] = assay: Greenhouse postemergence herbicidal activity; conditions: CHEAL
Description: as §1
(§9) For the post emergence treatment, the plants were first grown to the 2 leaf station (GS 12). Here, the herbicidal compositions were suspended or emulsified in water as distribution medium and sprayed using finely distributing nozzles.
as §3, §4, §5, §6, §7, §8

Setaria viridis [8] = assay: Greenhouse postemergence herbicidal activity; conditions: imazamox solo 4.4 g ai/ha, SETVI
Description: as §1, §9, §3, §4, §5, §6, §7, §8

Polygonum convolvulus [9] = assay: Greenhouse postemergence herbicidal activity; conditions: POLCO
Description: as §1, §9, §3, §4, §5, §6, §7, §8

Sorghum halepense [10] = assay: Greenhouse postemergence herbicidal activity; conditions: SORHA, 20 DAT
Description: as §1, §9, §3, §4, §5, §6, §7, §8

Avena fatua [11] = assay: Greenhouse postemergence herbicidal activity; conditions: imazamox solo 4.4 g ai/ha, AVEFA, 20 DAT
Description: as §1, §9, §3, §4, §5, §6, §7, §8

Anthemis arvensis [12] = assay: Greenhouse postemergence herbicidal activity; conditions: imazamox solo 35 g ai/ha, ANTAR, 20 DAT
Description: as §1, §9, §3, §4, §5, §6, §7, §8

[13] = imazamox solo 4.4 g ai/ha, 20 DAT
[14] = imazamox solo 4.4 g ai/ha, 20 DAT (line of 25 + 4.4)
[15] = imazamox solo 8.8 g ai/ha, 20 DAT
[16] = imazamox solo 17.5 g ai/ha, 20 DAT
[17] = imazamox solo 17.5 g ai/ha, 20 DAT (line of 100 + 17.5)
[18] = imazamox solo 35 g ai/ha, 20 DAT
[19] = imazamox solo 35 g ai/ha, 20 DAT (line of 200 + 35)
[20] = imazamox solo 8.8 g ai/ha, 20 DAT (line of 50 + 8.8)

**Q.** How did the herbicidal activity (Abutilon theophrasti; imazamox solo 17.5 g ai/ha) turn out when COCc1cnc(C2=NC(C)(C(C)C)C(=O)N2)c(C(=O)O)c1 (racemic) [imazamox, 2-[(RS)-4-isopropyl-4-methyl-5-oxo-2-imidazolin-2-yl]-5-methoxymethylnicotinic acid] was run?
**A.** 70%

**Q.** And the herbicidal activity (Abutilon theophrasti; imazamox solo 35 g ai/ha)?
**A.** 75%

**Q.** What about the herbicidal activity (Lolium multiflorum; [13]) of the same compound?
**A.** 0%

**Q.** And the herbicidal activity (Lolium multiflorum; [14])?
**A.** 0%

**Q.** What about the herbicidal activity (Lolium multiflorum; [15]) of the same compound?
**A.** 70%

**Q.** What about the herbicidal activity (Chenopodium album [1]) of the same compound?
**A.** 0%

**Q.** What about the herbicidal activity (Setaria viridis [2]; [14]) of the same compound?
**A.** 20%

**Q.** And the herbicidal activity (Setaria viridis [2]; imazamox solo 4.4 g ai/ha, 20 DAT (line of 62.5 + 4.4))?
**A.** 60%

**Q.** What about the herbicidal activity (Setaria viridis [2]; [15]) of the same compound?
**A.** 65%

**Q.** And the herbicidal activity (Galium aparine; imazamox solo 4.4 g ai/ha)?
**A.** 0%

**Q.** What about the herbicidal activity (Galium aparine; imazamox solo 35 g ai/ha) of the same compound?
**A.** 75%

**Q.** What about the herbicidal activity (Polygonum convolvulus [3]) of the same compound?
**A.** 25%

**Q.** What about the herbicidal activity (Geranium dissectum) of the same compound?
**A.** 0%

**Q.** What about the herbicidal activity (Amaranthus retroflexus; [13]) of the same compound?
**A.** 75%

**Q.** What about the herbicidal activity (Amaranthus retroflexus; [14]) of the same compound?
**A.** 75%

**Q.** What about the herbicidal activity (Amaranthus retroflexus; [15]) of the same compound?
**A.** 90%

**Q.** And the herbicidal activity (Amaranthus retroflexus; [16])?
**A.** 95%

**Q.** And the herbicidal activity (Amaranthus retroflexus; [17])?
**A.** 95%

**Q.** And the herbicidal activity (Amaranthus retroflexus; [18])?
**A.** 95%

**Q.** And the herbicidal activity (Amaranthus retroflexus; [19])?
**A.** 95%

**Q.** What about the herbicidal activity (Sorghum halepense [4]) of the same compound?
**A.** 10%

**Q.** What about the herbicidal activity (Avena fatua [5]; [15]) of the same compound?
**A.** 20%

**Q.** What about the herbicidal activity (Avena fatua [5]; [20]) of the same compound?
**A.** 20%

**Q.** What about the herbicidal activity (Avena fatua [5]; [16]) of the same compound?
**A.** 65%

**Q.** And the herbicidal activity (Avena fatua [5]; [17])?
**A.** 65%

**Q.** What about the herbicidal activity (Echinochloa crus-galli; imazamox solo 4.4 g ai/ha) of the same compound?
**A.** 30%

**Q.** And the herbicidal activity (Echinochloa crus-galli; imazamox solo 8.8 g ai/ha)?
**A.** 40%

**Q.** And the herbicidal activity (Anthemis arvensis [6]; [13])?
**A.** 0%

**Q.** And the herbicidal activity (Anthemis arvensis [6]; [15])?
**A.** 0%

**Q.** What about the herbicidal activity (Anthemis arvensis [6]; [16]) of the same compound?
**A.** 20%

**Q.** And the herbicidal activity (Anthemis arvensis [6]; [18])?
**A.** 65%

**Q.** And the herbicidal activity (Anthemis arvensis [6]; [19])?
**A.** 65%

**Q.** And the herbicidal activity (Stellaria media; [15])?
**A.** 80%

**Q.** And the herbicidal activity (Stellaria media; [20])?
**A.** 80%

**Q.** And the herbicidal activity (Stellaria media; [16])?
**A.** 95%

**Q.** What about the herbicidal activity (Chenopodium album [7]; [13]) of the same compound?
**A.** 90%

**Q.** What about the herbicidal activity (Chenopodium album [7]; imazamox solo 4.4 g ai/ha, 20 DAT (line of 43.8 + 4.4)) of the same compound?
**A.** 90%

**Q.** And the herbicidal activity (Chenopodium album [7]; [15])?
**A.** 95%

**Q.** What about the herbicidal activity (Setaria viridis [8]; 20 DAT) of the same compound?
**A.** 95%

**Q.** And the herbicidal activity (Setaria viridis [8]; 20 DAT (line of 43.8 + 4.4))?
**A.** 95%

**Q.** What about the herbicidal activity (Polygonum convolvulus [9]; [13]) of the same compound?
**A.** 90%

**Q.** And the herbicidal activity (Polygonum convolvulus [9]; [16])?
**A.** 95%

**Q.** What about the herbicidal activity (Polygonum convolvulus [9]; imazamox solo 17.5 g ai/ha, 20 DAT (line of 175 + 17.5)) of the same compound?
**A.** 95%

**Q.** And the herbicidal activity (Polygonum convolvulus [9]; [18])?
**A.** 95%

**Q.** And the herbicidal activity (Sorghum halepense [10]; imazamox solo 4.4 g ai/ha)?
**A.** 90%

**Q.** What about the herbicidal activity (Sorghum halepense [10]; imazamox solo 17.5 g ai/ha) of the same compound?
**A.** 95%

**Q.** And the herbicidal activity (Sorghum halepense [10]; imazamox solo 35 g ai/ha)?
**A.** 98%

**Q.** And the herbicidal activity (Avena fatua [11])?
**A.** 70%

**Q.** And the herbicidal activity (Anthemis arvensis [12])?
**A.** 98%
